This passage reports IC50 results from US5880128A, “Carbonyl piperazinyl and piperidinyl compounds” (Schering Corporation, priority 1996, dated 1999).

The target in the assay is farnesyl protein transferase (FPT). Nature of the assay: In vitro enzyme assay: inhibition of farnesyl protein transferase (FPT, FTase). It counts as biochemical, rat; human. The note with it: concentration of compound which inhibits 50% of FPT transferase. An excerpt:
1. In vitro enzyme assays: Inhibition of farnesyl protein transferase and geranylgeranyl protein transferase.
Both farnesyl protein transferase (FPT) and geranylgeranyl protein transferase (GGPT) I are partially purified from rat brain by ammonium sulfate fractionation followed by Q-Sepharose (Pharmacia, Inc.) anion exchange chromatography essentially as described by Yokoyama et al (Yokoyama, K., et al., (1991), A protein geranylgeranyltransferase from bovine brain: Implications for protein prenylation specificity, Proc. Natl. Acad. Sci USA 88: 5302-5306, the disclosure of which is incorporated herein by reference thereto). Human farnesyl protein transferase is also expressed in E. coli, using cDNA clones encoding both the α and β subunits. The methods used are similar to those published (Omer, C. et al., (1993), Characterization of recombinant human farnesyl protein transferase: Cloning, expression, farnesyl diphosphate binding, and functional homology with yeast prenyl-protein transferases, Biochemistry 32:5167-5176). Human farnesyl protein transferase is partially-purified from the soluble protein fraction of E. coli as described above. The farnesyl protein transferase inhibitors disclosed herein may inhibit both human and rat enzyme with similar potencies. Two forms of val^12 -Ha-Ras protein are prepared as substrates for these enzymes, differing in their carboxy terminal sequence. One form terminates in cysteine-valine-leucine-serine (Ras-CVLS) the other in cystein-valine-leucine-leucine (Ras-CVLL). Ras-CVLS is a substrate for the farnesyl protein transferase while Ras-CVLL is a substrate for geranylgeranyl protein transferase I. The cDNAs encoding these proteins are constructed so that the proteins contain an amino-terminal extension of 6 histidine residues. Both proteins are expressed in Escherichia coli and purified using metal chelate affinity chromatography. The radiolabelled isoprenyl pyrophosphate substrates, [^3 H]farnesyl pyrophosphate and [^3 H]geranylgeranyl pyrophosphate, are purchased from a commercial source, such as DuPont/New England Nuclear.
Several methods for measuring farnesyl protein transferase activity are known (Reiss et al 1990, Cell 62: 81; Schaber et al 1990, J. Biol. Chem. 265: 14701; Manne et al 1990, PNAS 8: 7541; and Barbacid & Manne 1993, U.S. Pat. No. 5,185,248). […] Filter mats are washed once with 6% TCA, 2% SDS and radioactivity is measured in a Wallac 1204 Betaplate BS liquid scintillation counter. Percent inhibition is calculated relative to the DMSO vehicle control. […]

The IC50 is the concentration at which inhibition is half-maximal.

`O=C(c1ccc(F)cc1)C1CCN(C(=O)Cc2ccncc2)CC1` returned an IC50 of more than 60 µM.

`Cc1c(C)c(C)c(C(=O)C2CCN(C(=O)Cc3ccncc3)CC2)c(C)c1C` gave an IC50 of 12.1 µM.

With `O=C(c1ccccc1)C1CCN(C(=O)Cc2ccncc2)CC1`, the IC50 is more than 60 µM.

In turn, `O=C(c1ccc(Cl)cc1)C1CCN(C(=O)Cc2ccncc2)CC1` yielded an IC50 of 60 µM.
